# Reference: patent US8039614B2, “4' -C-substituted-2-haloadenosine derivative” (Yamasa Corporation, priority 2004, dated 2011)
# Tests used:
# [1] = MTT method using non-infected MT-4 cells (cytotoxicity); assay type: cell-based; conditions: human
# Method: (§1) 1) MTT Method Using MT-4 Cells
# (§2) • 1. A test agent (100 μl) is diluted on a 96-well microplate. MT-4 cells infected with HIV-1 (IIIb strain; 100 TCID50) and non-infected MT-4 cells are added to the microplate such that the number of cells in each well becomes 10,000. The cells are cultured at 37° C. for five days. • 2. MTT (20 μl, 7.5 mg/ml) is added to each well, and the cells are further cultured for 2-3 hours. • 3. The cultured medium (120 μl) is sampled, and MTT terminating solution (isopropanol containing 4% Triton X-100 and 0.04N HCl) is added to the sample. The mixture is stirred to dissolve formed formazan. The absorbance at 540 nm of the solution is measured. Since the absorbance is proportional to the number of viable cells, the test agent concentration at which a half value of the absorbance is measured in a test using infected MT-4 cells represents EC50, whereas the test agent concentration at which a half value of the absorbance is measured in a test using non-infected MT-4 cells represents CC50. 2) MAGI Assay Using HeLa CD4/LTR-beta-Gal Cells • 1. HeLa CD4/LTR-beta-Gal cells are added to 96 wells such that the number of cells in each well is 10,000. After 12-24 hours, the culture medium is removed, and a diluted test agent (100 μl) is added. • 2. A variety of HIV strains (wild strain: WT, drug-resistant strain: MDR and M184V; each being equivalent to 50 TCID50) are added, and the cells are further cultured for 48 hours. • 3. The cells are fixed for five minutes using PBS supplemented with 1% formaldehyde and 0.2% glutaraldehyde. • 4. After the fixed cells are washed with PBS three times, the cells are stained with 0.4 mg/ml X-Gal for one hour, and the number of blue-stained cells of each well is counted under a transmission stereoscopic microscope. The test agent concentration at which blue-stained cells decrease to 50% in number represents EC50. <Results> Anti-human-immunodeficiency Virus (HIV) Activity and Cytotoxicity 1) MTT Method Using MT-4 Cells
# [2] = biological target: T1, Calf-intestine-derived adenosine deaminase (Bos taurus, UniProt P56658); experiment: Stability against adenosine deaminase (HPLC); assay type: in vitro ADME; conditions: 0.01 unit enzyme, 0.5 mM compound, Tris-HCl pH 7.5, 25° C., FIG. 1
# T1 construct: Calf-intestine-derived adenosine deaminase; from tissue; host or cells: calf intestine
# T1 sequence (P56658 1-363): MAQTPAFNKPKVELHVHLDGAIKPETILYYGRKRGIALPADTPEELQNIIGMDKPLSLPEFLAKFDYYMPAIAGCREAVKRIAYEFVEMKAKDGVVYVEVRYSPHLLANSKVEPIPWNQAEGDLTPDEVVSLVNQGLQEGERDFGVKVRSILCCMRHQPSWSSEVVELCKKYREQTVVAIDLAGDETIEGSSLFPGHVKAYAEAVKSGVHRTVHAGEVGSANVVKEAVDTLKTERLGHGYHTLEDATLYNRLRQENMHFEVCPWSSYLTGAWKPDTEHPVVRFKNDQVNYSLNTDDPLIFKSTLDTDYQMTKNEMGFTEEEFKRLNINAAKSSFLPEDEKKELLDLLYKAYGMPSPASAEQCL
# Method: <Test Methods> Stability of Compound 4 Against Adenosine Deaminase Calf-intestine-derived adenosine deaminase (0.01 unit) was added to 0.5 ml of 0.5-mM compound 4 (50 mM Tris-HCl buffered solution (pH 7.5)), and the mixture was incubated at 25° C. A 5-μl aliquot of the reaction mixture was removed every 15 minutes, followed by analysis by means of HPLC (high performance liquid chromatography). The peak area of a test drug at reaction time 0 was taken as 100%, and the curve was monitored over time. The HPLC analysis was performed under the following conditions. Column: YMC-Pack ODS-A (250×6.0 mm) Eluent: 15% MeCN-50 mM TEAA Flow rate: 1 mL/min. Temperature: 30° C. Detection: 260 nm
# [3] = system: HIV-1 M184V drug-resistant strain; experiment: MAGI assay using HeLa CD4/LTR-beta-Gal cells, drug-resistant strain M184V; assay type: cell-based; conditions: Human immunodeficiency virus 1, HeLa, 48 h, read-out: Anti-HIV-1M184V activity (EC50, μM)
# Method: as §2
# [4] = system: ICR mice; experiment: In vivo acute toxicity test in ICR mice; conditions: for Survisors/Total: ICR mice, seven days
# Method: <Test methods> In vivo Acute Toxicity Test of Compound 4
# Groups of ICR mice (6 weeks of age, male), each group consisting of 8 mice, were given a test drug (Compound 4; dissolved or suspended in saline) via oral route or intravenous injection in amounts up to 100 mg/kg. The occurrence of death and body weight of each mouse were monitored for seven days.
# [5] = Stability under acidic conditions (HPLC); assay type: physicochemical; conditions: NaCl/hydrochloric acid test solution, 37° C.
# Method: <Test Methods> Stability of Compound 4 Under Acidic Conditions
# Compound 4 (2.9 mg) or 2′,3′-dideoxyadenosine (ddAdo: 2.4 mg) was dissolved in 10 ml of a 37° C. test solution (which had been prepared by adding 2.0 g of sodium chloride and 7.0 ml of hydrochloric acid into water to make a solution of 1,000 ml), followed by incubation at the same temperature (37° C.).
# A 100-μl aliquot of the reaction mixture was removed therefrom and neutralized with aqueous 0.1-N sodium hydroxide solution, followed by analysis of 5 μl by means of HPLC. The HPLC analysis conditions are the same as those employed in Test Example 2.
# [6] = system: HIV-1 (IIIb strain); experiment: MTT method using MT-4 cells infected with HIV-1 (anti-HIV activity); assay type: cell-based; conditions: for EC50: MT-4 cells infected with HIV-1 IIIb, MTT, five days; for Selectivity Index (CC50/EC50): MT-4 cells
# Method: as §1, §2
# [7] = system: HIV-1 wild strain (WT); experiment: MAGI assay using HeLa CD4/LTR-beta-Gal cells, wild strain; assay type: cell-based; conditions: Human immunodeficiency virus 1, 48 hours, read-out: Anti-HIV-1wild activity (EC50)
# Method: as §2
# [8] = system: HIV-1 MDR drug-resistant strain; experiment: MAGI assay using HeLa CD4/LTR-beta-Gal cells, drug-resistant strain MDR; assay type: cell-based; conditions: Human immunodeficiency virus 1, HeLa, 48 h, read-out: Anti-HIV-1MDR activity (EC50, μM)
# Method: as §2
# [9] = system: non-infected MT-4 cells; experiment: MTT method using non-infected MT-4 cells (cytotoxicity); assay type: cell-based; conditions: non-infected MT-4 cells, MTT, five days
# Method: as §1, §2
# [10] = Human immunodeficiency virus 1, MT4, 120 h
smiles,measurement,setting,value
"C#C[C@]1(CO)O[C@@H](n2cnc3c(N)nc(F)nc32)C[C@@H]1O [Compound 4, 2′-deoxy-4′-C-ethynyl-2-fluoroadenosine]",CC50 at 5 days,[1],7500 nM
same,Deamination by adenosine deaminase,[2],not at all deaminated
same,EC50,[3],0.00311 µM
same,Survisors/Total,"[4]; Intravenous, 1 mg/kg single dose",8/8
same,Survisors/Total,"[4]; Intravenous, 3 mg/kg single dose",8/8
same,Survisors/Total,"[4]; Intravenous, 10 mg/kg single dose",8/8
same,Survisors/Total,"[4]; Intravenous, 30 mg/kg single dose",8/8
same,Survisors/Total,"[4]; Intravenous, 100 mg/kg single dose",8/8
same,Survisors/Total,"[4]; Oral, 1 mg/kg single dose",8/8
same,Survisors/Total,"[4]; Oral, 3 mg/kg single dose",8/8
same,Survisors/Total,"[4]; Oral, 10 mg/kg single dose",8/8
same,Survisors/Total,"[4]; Oral, 30 mg/kg single dose",8/8
same,Survisors/Total,"[4]; Oral, 100 mg/kg single dose",8/8
same,Acute toxicity in mice (conclusion),"[4]; mouse, in vivo",does not exhibit acute toxicity
same,Survival of mice,"[4]; mouse, in vivo",survived
same,Weight loss and pathological symptoms such as diarrhea,"[4]; mouse, in vivo",not observed
same,Degradation under acidic conditions,[5]; FIG. 2,degraded very slowly
same,EC50,[6]; [10],0.068 nM
same,Selectivity Index (CC50/EC50),[6],"110,000"
same,EC50,[7],0.2 nM
same,EC50,[8],0.000145 µM
"N#C[C@]1(CO)O[C@@H](n2cnc3c(N)nc(F)nc32)C[C@@H]1O [Compound 8, 4′-C-cyano-2′-deoxy-2-fluoroadenosine]",EC50,[3],4.8 µM
same,EC50,[7],120 nM
same,EC50,[8],0.95 µM
"C#C[C@]1(CO)O[C@@H](n2cnc3c(N)nc(Cl)nc32)C[C@@H]1O [Compound 9, 2-chloro-2′-deoxy-4′-C-ethynyladenosine]",EC50,[3],0.01 µM
same,EC50,[7],1.9 nM
same,EC50,[8],0.0084 µM
"C#C[C@]1(CO[PH](=O)O)O[C@@H](n2cnc3c(N)nc(F)nc32)C[C@H]1O [Compound 10, 2′-deoxy-4′-C-ethynyl-2-fluoroadenosine 5′-H-phosphonate]",EC50,[3],0.062 µM
same,EC50,[7],3.4 nM
same,EC50,[8],0.003 µM
"C#C[C@@]1(CO)C=C[C@H](n2cnc3c(N)nc(F)nc32)O1 [Compound 13, 2′,3′-didehydro-2′,3′-dideoxy-4′-C-ethynyl-2-fluoroadenosine]",EC50,[3],1.8 µM
same,EC50,[7],800 nM
same,EC50,[8],0.15 µM
"C#C[C@]1(CO)O[C@@H](n2cnc3c(N)ncnc32)C[C@@H]1O [EdAdo, 2′-deoxy-4′-C-ethynyladenosine, reference compound]",CC50 at 5 days,[1],16000 nM
same,Deamination by adenosine deaminase,[2],deaminated
same,EC50,[3],0.047 µM
same,EC50,[6]; [10],9.8 nM
same,Selectivity Index (CC50/EC50),[6],"1,630"
same,EC50,[7],8 nM
same,EC50,[8],0.0062 µM
"C#C[C@]1(CO)O[C@@H](n2cnc3c(N)nc(N)nc32)C[C@@H]1O [EdDAP, 9-(4-C-ethynyl-2-deoxy-ribopentofuranosyl)-2,6-diaminopurine]",CC50,[9],900 nM
same,EC50,[6],0.34 nM
"Nc1ncnc2c1ncn2[C@H]1CC[C@@H](CO)O1 [ddAdo, 2′,3′-dideoxyadenosine, reference compound]",Fraction degraded under acidic conditions,"[5]; in about five minutes, FIG. 3",About 98%
